The values below come from patent US20250313548A1 (Actio Biosciences, Inc., priority 2023, published 2025).

Sequence of human, KCNT1 (Q5JUK3 whole entry): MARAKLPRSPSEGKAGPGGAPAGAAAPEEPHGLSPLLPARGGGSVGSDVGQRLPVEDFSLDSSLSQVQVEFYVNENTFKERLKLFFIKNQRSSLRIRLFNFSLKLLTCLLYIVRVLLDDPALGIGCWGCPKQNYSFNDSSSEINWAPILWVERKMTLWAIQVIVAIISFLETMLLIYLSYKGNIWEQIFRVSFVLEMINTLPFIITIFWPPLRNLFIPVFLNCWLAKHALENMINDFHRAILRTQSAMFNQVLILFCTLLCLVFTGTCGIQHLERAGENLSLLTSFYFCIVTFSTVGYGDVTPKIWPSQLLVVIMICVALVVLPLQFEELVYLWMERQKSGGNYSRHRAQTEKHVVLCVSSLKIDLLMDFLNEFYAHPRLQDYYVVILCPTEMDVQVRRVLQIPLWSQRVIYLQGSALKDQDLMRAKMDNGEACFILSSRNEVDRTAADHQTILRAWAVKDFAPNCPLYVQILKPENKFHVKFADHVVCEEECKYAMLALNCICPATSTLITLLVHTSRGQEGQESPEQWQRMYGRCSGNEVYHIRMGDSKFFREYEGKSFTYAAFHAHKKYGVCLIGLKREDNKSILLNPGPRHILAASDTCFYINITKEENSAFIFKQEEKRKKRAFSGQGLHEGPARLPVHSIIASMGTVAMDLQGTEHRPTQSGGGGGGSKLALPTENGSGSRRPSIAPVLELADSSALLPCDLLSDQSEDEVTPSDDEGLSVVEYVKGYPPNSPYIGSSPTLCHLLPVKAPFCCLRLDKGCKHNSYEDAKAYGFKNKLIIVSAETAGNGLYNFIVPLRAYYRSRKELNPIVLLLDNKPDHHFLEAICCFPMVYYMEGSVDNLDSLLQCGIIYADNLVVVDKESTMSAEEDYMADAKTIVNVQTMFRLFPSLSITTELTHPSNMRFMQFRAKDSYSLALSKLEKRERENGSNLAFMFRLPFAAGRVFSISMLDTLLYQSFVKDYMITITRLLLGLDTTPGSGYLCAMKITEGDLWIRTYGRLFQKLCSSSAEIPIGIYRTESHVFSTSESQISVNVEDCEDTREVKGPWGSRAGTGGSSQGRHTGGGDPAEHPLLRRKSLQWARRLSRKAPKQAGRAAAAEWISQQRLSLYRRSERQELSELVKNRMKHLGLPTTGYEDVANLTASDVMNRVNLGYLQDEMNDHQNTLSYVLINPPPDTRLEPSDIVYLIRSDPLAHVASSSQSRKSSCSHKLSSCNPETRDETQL

The target of this test is human, KCNT1 (Homo sapiens (Human), UniProt Q5JUK3). The test is described as follows: FLIPR Tl/K Flux Assay. The test is classed as cell-based. To be noted: HEK293 cells stably expressing human KCNT1; Tl+ flux stimulated with EC80 of agonist Loxapine. An outline of the steps:
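Inhibition values come from a Hill-equation fit of % inhibition versus log concentration, using normalized fluorescence (Fmax/Fmin) over a 160 s read. The read followed stimulation with Tl+ plus EC80 agonist loxapine after 30 min compound pre-incubation at 25 °C. Cells were KCNT1-expressing HEK293, dye-loaded 1 h in pH 7.4 HEPES/HBSS with 5 mM probenecid.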
In turn, `COc1cc(-c2cc3n(n2)CC[C@@H]3NC(=O)c2cnn(C(F)(F)F)c2)c(F)cn1` [Compound I-577a, (S)-N-(2-(5-Fluoro-2-methoxypyridin-4-yl)-5,6-dihydro-4H-pyrrolo[1,2-b]pyrazol-4-yl)-1-(trifluoromethyl)-1H-pyrazole-4-carboxamide] had an IC50 of less than 250 nM.

`COc1cc(F)cc(C(=O)N[C@H]2CCCn3nc(-c4ccnc(C(F)(F)F)c4)cc32)c1` [Compound I-578a, (S)-3-Fluoro-5-methoxy-N-(2-(2-(trifluoromethyl)pyridin-4-yl)-4,5,6,7-tetrahydropyrazolo[1,5-a]pyridin-4-yl)benzamide] returned an IC50 of less than 250 nM.

In turn, `CCOc1cc(F)cc(C(=O)N[C@H]2CCCn3nc(-c4ccnc(C(F)(F)F)c4)cc32)c1` [Compound I-579a] showed an IC50 of less than 250 nM.

In turn, `O=C(N[C@H]1CCCn2nc(-c3ccnc(C(F)(F)F)c3)cc21)c1cc(F)cc(C2CC2)c1` [Compound I-580a, (S)-3-Cyclopropyl-5-fluoro-N-(2-(2-(trifluoromethyl)pyridin-4-yl)-4,5,6,7-tetrahydropyrazolo[1,5-a]pyridin-4-yl)benzamide] came in with an IC50 of less than 250 nM.

In the case of `CC(C)(O)c1cc(F)cc(C(=O)N[C@H]2CCCn3nc(-c4ccnc(C(F)(F)F)c4)cc32)c1` [Compound I-581a], the IC50 was less than 250 nM.

As for `O=C(N[C@H]1CCCn2nc(-c3ccnc(C(F)(F)F)c3)cc21)c1cnc(C(F)(F)F)cn1` [Compound I-582a, (S)-5-(Trifluoromethyl)-N-(2-(2-(trifluoromethyl)pyridin-4-yl)-4,5,6,7-tetrahydropyrazolo[1,5-a]pyridin-4-yl)pyrazine-2-carboxamide], the IC50 is less than 250 nM.

For the molecule `O=C(N[C@H]1CCn2nc(-c3ccnc(C(F)(F)F)c3)cc21)C12CC(CC(F)(F)F)(C1)C2` [Compound I-583a, (S)-3-(2,2,2-Trifluoroethyl)-N-(2-(2-(trifluoromethyl)pyridin-4-yl)-5,6-dihydro-4H-pyrrolo[1,2-b]pyrazol-4-yl)bicyclo[1.1.1]pentane-1-carboxamide], the IC50 is less than 250 nM.

The molecule `O=C(N[C@H]1CCn2nc(-c3ccnc(C4CC4)c3)cc21)C12CC(CC(F)(F)F)(C1)C2` [Compound I-584a, (S)-N-(2-(2-Cyclopropylpyridin-4-yl)-5,6-dihydro-4H-pyrrolo[1,2-b]pyrazol-4-yl)-3-(2,2,2-trifluoroethyl)bicyclo[1.1.1]pentane-1-carboxamide] yielded an IC50 of less than 250 nM.

Molecule `O=C(N[C@H]1CCn2nc(-c3ccnc(C(F)(F)F)c3)cc21)[C@@H]1C[C@@H]1C(F)(F)F` [I-487^, (1R,2S)-2-(trifluoromethyl)-N—((S)-2-(2-(trifluoromethyl)pyridin-4-yl)-5,6-dihydro-4H-pyrrolo[1,2-b]pyrazol-4-yl)cyclopropane-1-carboxamide] had an IC50 of less than 250 nM.

For `O=C(N[C@H]1CCn2nc(-c3ccnc(C(F)(F)F)c3)cc21)[C@@H]1C[C@H]1C(F)(F)F` [I-488^, (1R,2R)-2-(trifluoromethyl)-N—((S)-2-(2-(trifluoromethyl)pyridin-4-yl)-5,6-dihydro-4H-pyrrolo[1,2-b]pyrazol-4-yl)cyclopropane-1-carboxamide], the IC50 was less than 250 nM.

As to “(S)-3-Chloro-5-methyl-N-(2-(2-(trifluoromethyl)pyridin-4-yl)-2,4,5,6-tetrahydrocyclopenta[c]pyrazol-4-yl)benzamide [Compound I-129a]”, the IC50 is less than 250 nM.

For the molecule “(S)-6-(Trifluoromethyl)-N-(2-(2-(trifluoromethyl)pyridin-4-yl)-5,6-dihydro-4H-pyrrolo[1,2-b]pyrazol-4-yl)pyrazine-2-carboxamide [Compound I-572a]”, the IC50 was less than 250 nM.

“(S)—N-(2-(2-Cyclopropyl-5-fluoropyridin-4-yl)-5,6-dihydro-4H-pyrrolo[1,2-b]pyrazol-4-yl)-1-methyl-3-(trifluoromethyl)-1H-pyrazole-5-carboxamide [Compound I-154a]” gave an IC50 of less than 250 nM.

Molecule “(rac)-N-(2-(2-Cyclopropylpyridin-4-yl)-4,5,6,7-tetrahydropyrazolo[1,5-a]pyridin-4-yl)-6-(trifluoromethyl)nicotinamide [Compound I-65]” came in with an IC50 of less than 250 nM.

A word on the IC50: it is the concentration needed to halve the response being measured. Higher therefore signals lower potency.
